Measured values taken from ChEMBL document CHEMBL1152288, “Characterization of thien-2-yl 1S,2R-milnacipran analogues as potent norepinephrine/serotonin transporter inhibitors for the treatment of neuropathic pain” (J Med Chem, 2008).
The source made the active and inactive calls. No cut-off for these calls is given here.

Columns and labels:
[1] = Plasma clearance in monkey at 5 mg/kg, iv or 30 mg/kg, po; type: ADME, organism-based, Macaca mulatta; details: rhesus monkey
[2] = Renal clearance in monkey at 5 mg/kg, iv or 30 mg/kg, po; type: ADME, organism-based, Macaca mulatta, Kidney; details: rhesus monkey, in vivo; read-out: CL_renal
[3] = Half life in monkey at 5 mg/kg, iv or 30 mg/kg, po; type: ADME, organism-based, Macaca mulatta; details: rhesus monkey, in vivo
[4] = Volume of distribution at steady state in monkey at 5 mg/kg, iv or 30 mg/kg, po; type: ADME, organism-based, Macaca mulatta; details: rhesus monkey, in vivo, read-out: Vdss
[5] = Cmax in monkey at 5 mg/kg, iv or 30 mg/kg, po; type: ADME, organism-based, Macaca mulatta; details: rhesus monkey, in vivo
[6] = Tmax in monkey at 5 mg/kg, iv or 30 mg/kg, po; type: ADME, organism-based, Macaca mulatta; details: rhesus monkey, in vivo
[7] = AUC in monkey at 5 mg/kg, iv or 30 mg/kg, po; type: ADME, organism-based, Macaca mulatta; details: rhesus monkey, plasma
[8] = Bioavailability in monkey at 5 mg/kg, iv or 30 mg/kg, po; type: ADME, organism-based, Macaca mulatta; details: rhesus monkey, in vivo
[9] = Plasma clearance in Beagle dog at 5 mg/kg, iv or 30 mg/kg, po; type: ADME, organism-based, Canis lupus familiaris
[10] = Renal clearance in Beagle dog at 5 mg/kg, iv or 30 mg/kg, po; type: ADME, organism-based, Canis lupus familiaris, Kidney; details: in vivo, read-out: CL_renal
[11] = Half life in Beagle dog at 5 mg/kg, iv or 30 mg/kg, po; type: ADME, organism-based, Canis lupus familiaris; details: in vivo
[12] = Volume of distribution at steady state in Beagle dog at 5 mg/kg, iv or 30 mg/kg, po; type: ADME, organism-based, Canis lupus familiaris; details: in vivo, read-out: Vdss
[13] = Cmax in Beagle dog at 5 mg/kg, iv or 30 mg/kg, po; type: ADME, organism-based, Canis lupus familiaris; details: in vivo
[14] = Tmax in Beagle dog at 5 mg/kg, iv or 30 mg/kg, po; type: ADME, organism-based, Canis lupus familiaris; details: in vivo
[15] = AUC in Beagle dog at 5 mg/kg, iv or 30 mg/kg, po; type: ADME, organism-based, Canis lupus familiaris; details: plasma
[16] = Bioavailability in Beagle dog at 5 mg/kg, iv or 30 mg/kg, po; type: ADME, organism-based, Canis lupus familiaris; details: in vivo
[17] = Plasma clearance in mouse at 5 mg/kg, iv or 30 mg/kg, po; type: ADME, organism-based
[18] = Half life in mouse at 5 mg/kg, iv or 30 mg/kg, po; type: ADME, organism-based; details: in vivo
[19] = Volume of distribution at steady state in mouse at 5 mg/kg, iv or 30 mg/kg, po; type: ADME, organism-based; details: in vivo, read-out: Vdss
[20] = Cmax in mouse at 5 mg/kg, iv or 30 mg/kg, po; type: ADME, organism-based; details: in vivo, read-out: Vdss
[21] = Tmax in mouse at 5 mg/kg, iv or 30 mg/kg, po; type: ADME, organism-based; details: in vivo
[22] = AUC in mouse at 5 mg/kg, iv or 30 mg/kg, po; type: ADME, organism-based; details: plasma
[23] = Bioavailability in mouse at 5 mg/kg, iv or 30 mg/kg, po; type: ADME, organism-based; details: in vivo
[24] = Lipophilicity, log D of the compound; type: physicochemical; details: octanol/water
[25] = Partition coefficient, log P of the compound; type: physicochemical; details: octanol/water
[26] = Metabolic stability in human liver microsomes assessed as systemic clearance at 1 uM after 15 mins by LC-MS/MS analysis; type: ADME, Microsome
[27] = Metabolic stability in rat liver microsomes assessed as systemic clearance at 1 uM after 15 mins by LC-MS/MS analysis; type: ADME, Microsome
in vitro = details: human, Caco-2
Description: Apparent permeability from apical to basolateral side of the human Caco-2 cells

[28] = biological target: Sodium-dependent noradrenaline transporter (Homo sapiens, UniProt P23975); assay: biochemical
Chain of Sodium-dependent noradrenaline transporter (P23975 whole entry): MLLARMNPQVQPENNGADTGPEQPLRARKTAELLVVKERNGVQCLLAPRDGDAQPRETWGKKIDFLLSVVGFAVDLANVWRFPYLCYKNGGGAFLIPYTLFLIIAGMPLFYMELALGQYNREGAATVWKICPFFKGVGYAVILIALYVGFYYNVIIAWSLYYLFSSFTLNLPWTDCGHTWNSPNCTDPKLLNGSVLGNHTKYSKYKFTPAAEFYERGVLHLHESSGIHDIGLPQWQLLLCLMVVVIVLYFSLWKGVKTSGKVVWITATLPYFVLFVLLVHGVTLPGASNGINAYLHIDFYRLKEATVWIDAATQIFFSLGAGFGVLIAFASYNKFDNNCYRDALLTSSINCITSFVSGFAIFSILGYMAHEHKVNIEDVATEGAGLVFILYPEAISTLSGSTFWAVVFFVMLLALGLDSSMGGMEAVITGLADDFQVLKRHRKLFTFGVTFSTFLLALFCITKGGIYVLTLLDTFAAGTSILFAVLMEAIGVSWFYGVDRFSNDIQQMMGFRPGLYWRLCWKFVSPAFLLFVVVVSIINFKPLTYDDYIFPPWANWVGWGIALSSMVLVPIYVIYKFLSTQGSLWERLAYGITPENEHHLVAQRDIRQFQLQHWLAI
Description: Displacement of Levo[ring-2,5,6-3H]norepinephrine from human cloned NET expressed in HEK293 cells by microplate scintillation counter

[29] = biological target: Sodium-dependent serotonin transporter (Homo sapiens, UniProt P31645); assay: biochemical
Chain of Sodium-dependent serotonin transporter (Homo sapiens, UniProt P31645) (P31645 whole entry): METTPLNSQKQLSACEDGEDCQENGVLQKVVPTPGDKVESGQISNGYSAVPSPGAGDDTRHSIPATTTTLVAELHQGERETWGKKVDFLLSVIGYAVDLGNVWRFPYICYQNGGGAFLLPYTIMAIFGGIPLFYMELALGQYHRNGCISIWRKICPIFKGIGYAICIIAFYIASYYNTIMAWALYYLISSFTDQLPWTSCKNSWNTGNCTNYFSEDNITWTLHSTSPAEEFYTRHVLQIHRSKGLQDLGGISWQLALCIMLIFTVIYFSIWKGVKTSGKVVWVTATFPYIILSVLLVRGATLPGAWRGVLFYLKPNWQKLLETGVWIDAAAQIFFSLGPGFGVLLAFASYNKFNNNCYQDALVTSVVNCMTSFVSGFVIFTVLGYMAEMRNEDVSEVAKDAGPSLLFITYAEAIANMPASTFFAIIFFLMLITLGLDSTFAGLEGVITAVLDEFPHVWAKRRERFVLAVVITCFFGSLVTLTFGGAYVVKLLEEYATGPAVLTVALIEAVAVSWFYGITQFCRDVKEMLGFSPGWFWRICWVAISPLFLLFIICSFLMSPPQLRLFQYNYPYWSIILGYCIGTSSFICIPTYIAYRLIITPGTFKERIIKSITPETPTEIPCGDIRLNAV
Description: Displacement of [alpha,beta-3H(N)]-5-hydroxytryptamine from human cloned SERT expressed in HEK293 cells by microplate scintillation counter

[30] = biological target: Sodium-dependent dopamine transporter (Homo sapiens, UniProt Q01959); assay: biochemical
Chain of Sodium-dependent dopamine transporter (Homo sapiens, UniProt Q01959) (Q01959 whole entry): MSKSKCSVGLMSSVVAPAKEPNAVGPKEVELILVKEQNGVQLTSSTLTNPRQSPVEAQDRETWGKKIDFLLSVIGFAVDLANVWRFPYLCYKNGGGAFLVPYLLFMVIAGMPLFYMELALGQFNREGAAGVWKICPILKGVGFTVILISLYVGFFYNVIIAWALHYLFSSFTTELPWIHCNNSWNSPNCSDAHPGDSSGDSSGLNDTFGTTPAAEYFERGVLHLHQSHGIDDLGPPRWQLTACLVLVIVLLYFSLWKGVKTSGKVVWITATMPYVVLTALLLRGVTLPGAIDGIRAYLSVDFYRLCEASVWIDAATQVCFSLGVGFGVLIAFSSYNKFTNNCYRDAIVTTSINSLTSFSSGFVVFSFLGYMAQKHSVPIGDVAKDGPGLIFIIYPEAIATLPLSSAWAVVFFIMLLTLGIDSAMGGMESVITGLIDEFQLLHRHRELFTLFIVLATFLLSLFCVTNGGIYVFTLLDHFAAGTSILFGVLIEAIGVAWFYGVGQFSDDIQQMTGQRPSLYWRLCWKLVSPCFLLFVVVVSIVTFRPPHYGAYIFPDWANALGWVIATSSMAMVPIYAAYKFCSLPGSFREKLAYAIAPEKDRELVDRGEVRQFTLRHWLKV
Description: Displacement of 3,4-[ring-2,5,6-3H]dihydroxyphenylethylamine from human cloned DAT expressed in HEK293 cells by microplate scintillation counter

[31] = biological target: Sodium-dependent serotonin transporter (Rattus norvegicus, UniProt P31652); type: cell-based, HEK293
Chain of Sodium-dependent serotonin transporter (Rattus norvegicus, UniProt P31652) (P31652 whole entry): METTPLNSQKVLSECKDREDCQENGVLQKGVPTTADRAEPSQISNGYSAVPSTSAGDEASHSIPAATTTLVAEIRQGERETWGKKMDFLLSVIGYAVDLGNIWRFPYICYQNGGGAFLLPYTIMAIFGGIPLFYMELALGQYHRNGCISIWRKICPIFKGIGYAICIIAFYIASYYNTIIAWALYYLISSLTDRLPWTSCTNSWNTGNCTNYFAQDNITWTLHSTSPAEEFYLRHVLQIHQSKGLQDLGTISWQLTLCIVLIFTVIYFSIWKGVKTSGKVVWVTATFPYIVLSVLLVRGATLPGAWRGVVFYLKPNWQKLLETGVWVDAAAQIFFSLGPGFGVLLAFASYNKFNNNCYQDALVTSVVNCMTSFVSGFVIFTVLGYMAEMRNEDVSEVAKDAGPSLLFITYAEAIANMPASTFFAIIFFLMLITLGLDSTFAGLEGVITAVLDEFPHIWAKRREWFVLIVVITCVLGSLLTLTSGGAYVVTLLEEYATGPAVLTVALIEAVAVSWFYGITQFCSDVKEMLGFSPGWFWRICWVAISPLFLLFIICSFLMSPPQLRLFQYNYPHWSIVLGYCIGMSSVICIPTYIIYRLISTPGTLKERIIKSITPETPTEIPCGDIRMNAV

Rattus norvegicus [32] = assay: Antinociceptive activity in CD rat assessed as reduction in number of hind paw flinching at 60 mg/kg, po by formalin test; type: functional; design: scale not given: the % may be the effect or the level left
Transporter = Transporter (Rattus norvegicus, UniProt Q63380); assay: biochemical
Chain of Transporter (Q63380 whole entry): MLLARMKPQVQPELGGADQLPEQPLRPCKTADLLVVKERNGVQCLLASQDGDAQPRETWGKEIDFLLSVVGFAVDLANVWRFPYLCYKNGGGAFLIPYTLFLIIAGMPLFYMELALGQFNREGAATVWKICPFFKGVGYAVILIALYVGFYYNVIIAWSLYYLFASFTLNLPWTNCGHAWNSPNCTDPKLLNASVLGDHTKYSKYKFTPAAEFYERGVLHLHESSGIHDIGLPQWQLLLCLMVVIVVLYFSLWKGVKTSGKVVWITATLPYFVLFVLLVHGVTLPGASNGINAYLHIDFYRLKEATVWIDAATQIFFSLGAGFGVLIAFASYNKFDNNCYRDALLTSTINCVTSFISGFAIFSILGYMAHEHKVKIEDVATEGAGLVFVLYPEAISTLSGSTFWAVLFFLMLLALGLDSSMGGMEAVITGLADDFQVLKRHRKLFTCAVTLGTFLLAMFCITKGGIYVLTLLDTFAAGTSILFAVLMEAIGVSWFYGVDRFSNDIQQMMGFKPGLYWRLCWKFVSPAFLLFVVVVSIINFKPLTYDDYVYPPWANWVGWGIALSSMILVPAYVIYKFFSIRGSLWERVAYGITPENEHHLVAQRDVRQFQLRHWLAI
Description: Displacement of Levo[ring-2,5,6-3H]norepinephrine from rat synaptosomal NET expressed in HEK293 cells by microplate scintillation counter

[33] = biological target: Sodium-dependent dopamine transporter (Rattus norvegicus, UniProt P23977); assay: biochemical
Chain of Sodium-dependent dopamine transporter (Rattus norvegicus, UniProt P23977) (P23977 whole entry): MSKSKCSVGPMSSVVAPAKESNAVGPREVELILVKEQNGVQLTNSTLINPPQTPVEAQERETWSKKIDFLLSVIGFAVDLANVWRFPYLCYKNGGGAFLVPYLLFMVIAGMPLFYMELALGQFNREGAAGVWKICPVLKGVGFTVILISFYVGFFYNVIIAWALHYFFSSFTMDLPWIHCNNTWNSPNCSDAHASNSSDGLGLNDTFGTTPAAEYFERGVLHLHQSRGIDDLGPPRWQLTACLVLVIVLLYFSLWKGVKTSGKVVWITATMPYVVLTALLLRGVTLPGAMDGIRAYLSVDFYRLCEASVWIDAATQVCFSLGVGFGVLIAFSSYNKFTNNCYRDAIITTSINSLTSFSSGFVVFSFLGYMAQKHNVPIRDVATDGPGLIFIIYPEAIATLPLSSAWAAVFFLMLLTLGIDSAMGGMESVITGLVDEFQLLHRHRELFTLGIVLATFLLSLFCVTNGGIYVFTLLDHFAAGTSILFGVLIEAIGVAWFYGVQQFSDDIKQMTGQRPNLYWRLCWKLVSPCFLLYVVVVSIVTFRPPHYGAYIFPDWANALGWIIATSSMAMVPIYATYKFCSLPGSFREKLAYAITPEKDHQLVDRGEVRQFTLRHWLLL
Description: Displacement of 3,4-[ring-2,5,6-3H]dihydroxyphenylethylamine from rat synaptosomal DAT expressed in HEK293 cells by microplate scintillation counter

[34] = Cmax in Sprague-Dawley rat at 30 mg/kg, po; type: ADME, organism-based; design: dose 30 mg/kg, route oral; details: in vivo
[35] = Tmax in Sprague-Dawley rat at 30 mg/kg, po; type: ADME, organism-based; design: dose 30 mg/kg, route oral; details: in vivo
[36] = AUC in Sprague-Dawley rat at 30 mg/kg, po; type: ADME, organism-based; design: dose 30 mg/kg, route oral; details: plasma
[37] = Apparent elimination half life in Sprague-Dawley rat at 30 mg/kg, po; type: ADME, organism-based; design: dose 30 mg/kg, route oral; details: in vivo, read-out: beta t1/2 (converted)
[38] = Apparent oral clearance in Sprague-Dawley rat at 30 mg/kg, po; type: ADME, organism-based; design: dose 30 mg/kg, route oral; details: in vivo
[39] = Drug level in Sprague-Dawley rat brain at 30 mg/kg, po after 1 hr; type: ADME, organism-based; design: dose 30 mg/kg, route oral; details: read-out: Drug uptake
[40] = Drug level in Sprague-Dawley rat brain at 30 mg/kg, po after 4 hrs; type: ADME, organism-based; design: dose 30 mg/kg, route oral; details: read-out: Drug uptake
[41] = Ratio of drug level in brain to plasma in Sprague-Dawley rat at 30 mg/kg, po after 1 hr; type: ADME, organism-based; design: dose 30 mg/kg, route oral
[42] = Ratio of drug level in brain to plasma in Sprague-Dawley rat at 30 mg/kg, po after 4 hrs; type: ADME, organism-based; design: dose 30 mg/kg, route oral
[43] = Plasma clearance in Sprague-Dawley rat at 2.5 mg/kg, iv; type: ADME, organism-based; design: dose 2.5 mg/kg, route intravenous
[44] = Cmax in Sprague-Dawley rat at 10 mg/kg, po; type: ADME, organism-based; design: dose 10 mg/kg, route oral; details: in vivo
[45] = Tmax in Sprague-Dawley rat at 10 mg/kg, po; type: ADME, organism-based; design: dose 10 mg/kg, route oral; details: in vivo
[46] = AUC in Sprague-Dawley rat at 10 mg/kg, po; type: ADME, organism-based; design: dose 10 mg/kg, route oral; details: plasma
[47] = Apparent elimination half life in Sprague-Dawley rat at 10 mg/kg, po; type: ADME, organism-based; design: dose 10 mg/kg, route oral; details: in vivo, read-out: beta t1/2 (converted)
[48] = Apparent oral clearance in Sprague-Dawley rat at 10 mg/kg, po; type: ADME, organism-based; design: dose 10 mg/kg, route oral; details: in vivo
[49] = AUC in Sprague-Dawley rat at 2.5 mg/kg, iv; type: ADME, organism-based; design: dose 2.5 mg/kg, route intravenous; details: plasma
[50] = Half life in Sprague-Dawley rat at 2.5 mg/kg, iv; type: ADME, organism-based; design: dose 2.5 mg/kg, route intravenous; details: in vivo
[51] = Mean residence time in Sprague-Dawley rat at 2.5 mg/kg, iv; type: ADME, organism-based; design: dose 2.5 mg/kg, route intravenous; details: in vivo
[52] = Volume of distribution at steady state in Sprague-Dawley rat at 2.5 mg/kg, iv; type: ADME, organism-based; design: dose 2.5 mg/kg, route intravenous; details: in vivo, read-out: Vdss
[53] = Volume of distribution in Sprague-Dawley rat at 2.5 mg/kg, iv; type: ADME, organism-based; design: dose 2.5 mg/kg, route intravenous; details: in vivo
[54] = Bioavailability in Sprague-Dawley rat at 2.5 mg/kg, iv; type: ADME, organism-based; details: in vivo
Rattus norvegicus [55] = assay: Antinociceptive activity in CD rat assessed as reduction in number of hind paw flinching at 100 mg/kg, po by formalin test; type: functional, organism-based; design: dose 100 mg/kg
Rattus norvegicus [56] = species on record: Rattus norvegicus; assay: Reversal of pin-prick-induced neuropathic mechanical hyperalgesia in Harlan Sprague-Dawley rat sciatic nerve ligation model; type: functional, organism-based
in vivo [57] = details: Sprague-Dawley, rat, brain/plasma, po, 10 mg/kg
Description: Ratio of drug level in brain to plasma in Sprague-Dawley rat at 10 mg/kg, po after 1 hr

in vivo [58] = details: Sprague-Dawley, rat, brain/plasma, po, 10 mg/kg; remark: listed apart in the source
Description: Ratio of drug level in brain to plasma in Sprague-Dawley rat at 10 mg/kg, po after 4 hrs

Description for physchem: Dissociation constant, pKa of the compound

SMILES | clearance [1] | CL renal [2] | half-life [3] | Vd [4] | Cmax [5] | Tmax [6] | AUC [7] | bioavailability [8] | clearance [9] | CL renal [10] | half-life [11] | logD [24] | logP [25] | CLhep predicted at 1 µM [26] | CLhep predicted at 1 µM [27] | pKa (physchem) | IC50 [31] | Activity (Rattus norvegicus [32]) | IC50 (Transporter) | IC50 [33] | also measured
C=C(F)CN(CC)C(=O)[C@@]1(c2cccs2)C[C@H]1CN.Cl | 34 mL/min/kg | 6 mL/min/kg | 4.3 h | 4.4 L/kg | 2440 ng/mL | 2.3 h | 9050 ng·h/mL | 70% | 10.8 mL/min/kg | 2.2 mL/min/kg | 3.5 h |  |  |  |  |  |  |  |  |  | Vd [12]: 2.4 L/kg; Cmax [13]: 5570 ng/mL; Tmax [14]: 1.2 h; AUC [15]: 47500 ng·h/mL; bioavailability [16]: 109%
C=CCN(CC=C)C(=O)[C@@]1(c2cccs2)C[C@H]1CN.Cl | 22.9 mL/min/kg | 3.9 mL/min/kg | 2.1 h | 3.8 L/kg | 905 ng/mL | 4.5 h | 6320 ng·h/mL | 34% | 19.2 mL/min/kg | 2 mL/min/kg | 2.4 h |  |  |  |  |  |  |  |  |  | Vd [12]: 3.6 L/kg; Tmax [14]: 1.8 h; AUC [15]: 17100 ng·h/mL; bioavailability [16]: 78%; clearance [17]: 135 mL/min/kg; half-life [18]: 0.79 h; Vd [19]: 5.4 L/kg; Cmax [20]: 1730 ng/mL; Tmax [21]: 0.3 h; AUC [22]: 3020 ng·h/mL; bioavailability [23]: 92%
C#CCN(CC#C)C(=O)[C@@]1(c2cccs2)C[C@H]1CN |  |  |  |  |  |  |  |  |  |  |  | 0.2 | 1.5 | 2.6 mL/min/kg | 43 mL/min/kg | 9.3 |  |  |  |  | Papp A→B (in vitro): 25 ×10⁻⁶ cm/s; IC50 [28]: 6 nM; IC50 [29]: 26 nM; IC50 [30]: > 10000 nM
C=CCN(CC)C(=O)[C@@]1(c2ccsc2)C[C@H]1CN |  |  |  |  |  |  |  |  |  |  |  |  |  |  |  |  | 27 nM | 56% | 6.4 nM | > 10000 nM | 
C#CCN(CC)C(=O)[C@@]1(c2cccs2)C[C@H]1CN |  |  |  |  |  |  |  |  |  |  |  | 0.1 | 1.6 | 2.6 mL/min/kg | 44 mL/min/kg | 9.4 | 160 nM | 56% | 160 nM | > 10000 nM | Cmax [34]: 649 ng/mL; Tmax [35]: 1.7 h; AUC [36]: 3210 ng·h/mL; half-life [37]: 1.9 h; CL/F [38]: 156 mL/min/kg; concentration at 1 h [39]: 230 ng/g; concentration at 4 h [40]: 112 ng/g; Kp at 1 h [41]: 0.3; Kp at 4 h [42]: 0.3; Papp A→B (in vitro): 20.6 ×10⁻⁶ cm/s; IC50 [28]: 19 nM; IC50 [29]: 81 nM; IC50 [30]: > 10000 nM
CCN(CC)C(=O)[C@]1(c2ccccc2)C[C@H]1CN |  |  |  |  |  |  |  |  |  |  |  | -0.2 | 1.6 | 5 mL/min/kg | 24 mL/min/kg | 9.6 | 28 nM | 56% | 16 nM | 20000 nM | clearance [43]: 58 mL/min/kg; Cmax [44]: 232 ng/mL; Tmax [45]: 0.3 h; AUC [46]: 566 ng·h/mL; half-life [47]: 1.3 h; CL/F [48]: 294 mL/min/kg; AUC [49]: 897 ng·h/mL; half-life [50]: 0.8 h; MRT [51]: 0.52 h; Vd [52]: 2 L/kg; Vd [53]: 4.3 L/kg; bioavailability [54]: 16%; Activity (Rattus norvegicus [55]): Active; Activity (Rattus norvegicus [56]): Dose-dependent effect; Kp at 1 h (in vivo [57]): 0.42; Kp at 4 h (in vivo [58]): 0.86
